Like-named read-outs stand apart in the source and are kept apart here.
Assays:
[1] = system: commercially available PLD; assay: In vitro transphosphatidylation of DOPC with alkynols by a commercially available PLD, CuAAC with Az488, HPLC-fluorescence/ESI-MS; type: biochemical; details: incubated with DOPC and PLD
[2] = system: endogenous PLD activity in HeLa cells; assay: Azidoalcohol labelling of PMA-stimulated HeLa cells, lipid extraction, SPAAC with BODIPY-cyclooctyne 1, HPLC; type: cell-based, human; details: for decrease of the signal: isoform-selective inhibitor during labeling
[3] = system: PLD activity in live cells; type: cell-based
[4] = system: PLD activity in HeLa cells; assay: Imaging of PLD-mediated PA synthesis in fixed HeLa cells with alkynols, CuAAC with Az488, confocal microscopy; type: cell-based, human
Method: To image sites of PLD-mediated PA synthesis, HeLa cells were treated with each of the three longer-chain alkynols and again stimulated PLD activity acutely with PMA, in the absence or presence of FIPI. Rather than proceeding with a whole-cell lipid extraction, cells were fixed with paraformaldehyde and subjected to CuAAC labeling with Az488. […] The observed labeling pattern was complex, likely the result of PA synthesis on membranes of multiple intracellular compartments. To determine the subcellular locations of the hexynol-based labeling, a series of colocalization studies were performed with markers of various organelle membranes. In these studies, HeLa cells were transfected with plasmids encoding fluorescent protein fusions to constituents of several organellar membranes and then the PA labeling protocol was performed using 1 mM hexynol and, where appropriate, either Az488 or an azide-containing tetramethylrhodamine derivative.

[5] = system: basal, endogenous PLD activity in HeLa cells; assay: Basal PLD activity: HeLa cells with 1 mM AzProp, lipid extraction, SPAAC with (1), HPLC; type: cell-based, human
Method: Up to this point, the efforts focused on monitoring acute PLD activation in response to a stimulus, by using PMA as a model pharmacological agent to mimic activation of several signal transduction pathways. In the absence of a stimulus, however, it is known that PLD enzymes display a much lower but appreciable level of basal activity.
To accomplish this, HeLa cells were treated with 1 mM AzProp, followed by lipid extraction, SPAAC labeling with (1), and HPLC analysis.

[6] = system: basal PLD activity in HeLa cells; assay: Basal PLD activity in live cells: AzProp/SPAAC labelling, confocal microscopy with isoform-selective inhibitors; type: cell-based, human; details: for effect of inhibitor on ER- and Golgi-derived fluorescence: HeLa cells; for effect of inhibitor on the high-fluorescence cell population: confocal microscopy
Method: To image sites of basal PLD activity within live cells, cells were treated with 1 mM AzProp for 2 hours and rinsed. The SPAAC reaction was then performed using (1).
Further experiments then examined the distribution of basal PLD activity at both the cellular and subcellular levels. […] Thus, at the cellular level, the high fluorescence of a minority of cells can be attributed to PLD1 activity, and the moderate fluorescence in the majority of cells to PLD2.
The subcellular localization of AzProp-marked basal PLD activity appeared to be similar to that of AzProp-marked, PMA-stimulated PLD enzymes, that is localized to a mixture of ER, Golgi, endosomal, and lysosomal membranes. Isoform-selective inhibitors were used to probe the relative contributions of each PLD isoform to PA biosynthetic activity on different organelle membranes. […] Thus, it can be concluded that, in HeLa cells, the bulk of ER-localized, basal PLD activity is due to PLD1, whereas PLD activity on Golgi membranes is due to a roughly equal mix of PLD1 and PLD2.

[7] = system: mammalian PLDs in HeLa cells; assay: Alkynol labelling of PMA-stimulated HeLa cells, lipid extraction, CuAAC with Az488, HPLC-fluorescence; type: cell-based, human; details: for extent of incorporation into phosphatidyl alcohols compared to the shorter alkynols: at the same concentration
Method: Further experiments evaluated whether mammalian PLDs would accept alkynols as substrates within live cells. HeLa cells were treated with each of the five alkynols for 20 minutes, stimulated acute PA biosynthesis pharmacologically using phorbol 12-myristate 13-acetate (PMA) (McDermott M, et al., Biochem. Cell Biol. 2004 February; 82(1):225-53), and then isolated total cellular lipid extracts. Following CuAAC labeling with Az488, the samples were analyzed by HPLC coupled to fluorescence detection. The HPLC-fluorescence results for the five alkynols (denoted as 1, 2, 3, 4, or 5 in panels 1-5, respectively) are shown in FIG. 2B.
While all five alkynols were accepted as transphosphatidylation substrates in HeLa cells, they were processed by cellular PLDs with different efficiencies. […] The molecular identities of the fluorescently labeled phosphatidyl alcohols (PA analogs) were verified by analyzing labeled extracts from cells treated with each of the three longer-chain alkynols by HPLC followed by ESI-MS.
This robust labeling with pentynol, hexynol, and heptynol led to further experiments to investigate whether the dose of alkynol could be lowered. The initial concentration of 12.9 mM alkynol corresponded to the low end of the concentration range of 0.1-0.5 mol % that is typically used in the traditional TLC-based butanol transphosphatidylation assay. Such high concentrations of alcohol, however, have several negative consequences. First, they are sufficient to compete with water in the PLD active site and reduce the ability of PLDs to synthesize PA, thus impacting PA-dependent signaling.

[8] = HeLa cells, PMA, SPAAC with BODIPY-cyclooctyne 1
[9] = PMA-stimulated HeLa cells, HPLC

`C#CCCO` [3-butyn-1-ol] was tested, and the “formation of the expected fluorescent phosphatidyl alcohol product (PLD substrate in vitro)” value (“formation” below) [1] was “confirmed the identity of the expected fluorescent phosphatidyl alcohol products”.

In the case of `[N-]=[N+]=NCCCCO` [AzBut, 4-azido-1-butanol], the “fluorescent lipid species by HPLC” value [2, 8] is reported as “presence of fluorescent lipid species” and the “efficacy as PLD substrate” value [2, 9] is reported as “performed roughly equivalently”.

`[N-]=[N+]=NCCO` [AzEt, 2-azidoethanol] was tested, and the “efficacy as PLD substrate” value [2] was “poorer PLD substrate”, the “fluorescent lipid species by HPLC” value [2] was “presence of fluorescent lipid species” and the “signal-to-background among the azidoalcohols” value [3] was “highest”.

With `[N-]=[N+]=NCCCCCO` [AzPent, 5-azido-1-pentanol] the “fluorescent lipid species by HPLC” value [2, 8] was “presence of fluorescent lipid species” and the “efficacy as PLD substrate” value [2, 9] was “performed roughly equivalently”.

With `O=C(NCCN1CCC(n2c(=O)[nH]c3ccccc32)CC1)c1cc2cc(F)ccc2[nH]1` [FIPI, 5-fluoro-2-indolyl deschlorohalopemide, reference compound] the “effect of inhibitor on fluorescent lipid species” value ([2]; treatment of cells during the labeling procedure, PMA-stimulated) was “complete loss of the fluorescent lipid species”, the “labeling in cells treated with alkynol and PLD inhibitor (negative control)” value ([4]; PMA, CuAAC with Az488) was “minimal background labeling” and the “effect of inhibitor on basal phosphatidyl alcohol production” value ([5]; unstimulated HeLa cells) was “prevented phosphatidyl alcohol production”.

For `C[C@@H](CN1CCC(n2c(=O)[nH]c3cc(Br)ccc32)CC1)NC(=O)[C@@H]1C[C@H]1c1ccccc1` [VU0359595], the “effect of inhibitor on ER- and Golgi-derived fluorescence” value [6] was “selective disappearance of most of the ER-derived fluorescence but only a portion of the Golgi-derived fluorescence”, the “effect of inhibitor on the high-fluorescence cell population” value [6] was “disappearance of high-fluorescence cells” and the “decrease of the signal” value ([2]; PMA-stimulated HeLa cells) was “approximately 75%”. For the same compound, the “share of the unstimulated PLD activity attributed to the inhibited isoform” value [5] was “roughly half”.

`O=C(NCCN1CCC2(CC1)C(=O)NCN2c1cccc(F)c1)c1ccc2ccccc2c1` [VU0364739] was tested, and the “effect of inhibitor on ER- and Golgi-derived fluorescence” value [6] was “decrease in Golgi-derived fluorescence but had minimal effect on ER-derived fluorescence”, the “effect of inhibitor on the high-fluorescence cell population” value [6] was “did not eliminate the high-fluorescence population” and the “decrease of the signal” value ([2]; PMA-stimulated HeLa cells) was roughly 25%. For the same compound, the “share of the unstimulated PLD activity attributed to the inhibited isoform” value [5] was “roughly half”.

With `C#CCCCCCO` [heptynol, 6-heptyn-1-ol] the “extent of incorporation into phosphatidyl alcohols compared to the shorter alkynols” value (shortened to “extent … compared to the shorter alkynols”) [7] was “incorporated to a greater extent into phosphatidyl alcohols” and the “formation” value [1] was “confirmed the identity of the expected fluorescent phosphatidyl alcohol products”.

With `C#CCCCCO` [hexynol, 5-hexyn-1-ol] the “alkynol concentration at which PA production could be detected in cells” value ([7]; HPLC) was no less than 100 µM, the “extent … compared to the shorter alkynols” value [7] was “incorporated to a greater extent into phosphatidyl alcohols” and the “alkynol concentration permitting detection of alkynol-dependent and FIPI-sensitive fluorescence” value ([4]; confocal microscopy) was no less than 100 µM. For the same compound, the “signal-to-background ratio among the three longer-chain alkynols” value ([4]; confocal microscopy) was “highest signal-to-background ratio” and the “formation” value [1] was “confirmed the identity of the expected fluorescent phosphatidyl alcohol products”.

With `C#CCCCO` [pentynol, 4-pentyn-1-ol] the “extent … compared to the shorter alkynols” value [7] was “incorporated to a greater extent into phosphatidyl alcohols” and the “formation” value [1] was “confirmed the identity of the expected fluorescent phosphatidyl alcohol products”.

In the case of `C#CCO` [propynol], the “formation” value [1] is reported as “confirmed the identity of the expected fluorescent phosphatidyl alcohol products”.

— US11198898B2, “Chemical tools for imaging phospholipase D activity” (CORNELL UNIVERSITY, priority 2017, dated 2021)
